The values below are quoted from earlier work in patent publication US20250161389A1, “Herbal composition for the treatment of malaria” (RNA Therapeutics, Inc., priority 2023, published 2025).

Structures are written as SMILES. Some results are limits rather than exact numbers.

The series relates to Plasmodium. To be noted: isolated compound, best activity.

Consider `C=C(C)[C@@H]1CC[C@@]2(C)[C@H]1[C@@H]1CC[C@@H]3[C@@]4(C)CCC(=O)C(C)(C)[C@@H]4[C@H](O)C[C@@]3(C)[C@]1(C)C[C@@H]2O` [resinone (39), resinone], for which the concentration for half-maximal inhibition (IC50) (as a rule, the concentration needed to halve the response being measured) was less than 1 µg/mL.
